Consider 33 compounds from patent publication US11485727B2, “N-methyl, n-(6-(methoxy)pyridazin-3-yl) amine derivatives as autotaxin (ATX) modulators” (Boehringer Ingelheim International GmbH, priority 2019, dated 2022).

The target of the first assay is ATX in human whole blood (Homo sapiens (Human), UniProt Q13822). Nature of the assay: Assay B: Whole-Blood ATX Assay. The class given is biochemical.
Settings: not given
The compound `CC(=O)N1CC2CCC(C1)N2c1ccc(CNc2ccc(OCc3ccc(C(F)(F)F)nc3)nn2)cc1` [Example 2.19] registered an IC50 of 2 nM.

The assay is the same for the next values; noted with them: human whole-blood, 1 h at 37° C., formation of 18:2 LPA; read-out: Human whole blood LPA IC50.
As for `CC(=O)N1CCN(c2ccc(CNc3ccc(OCc4ccc(C(F)(F)F)nc4)nn3)cn2)CC1` [Example 2.5], the half-inhibitory concentration (IC50) stood at 4 nM.

For `CC(=O)N1CCC2(CC1)CN(c1ccc(CNc3ccc(OCc4ccc(C(F)F)nc4)nn3)nc1)C2` [Example 2.16], the 50% inhibitory concentration (IC50) was determined as 5.1 nM.

For `CC(=O)N1CCN(c2ccc(CNc3ccc(OCc4ccc(C(F)(F)F)nc4)nn3)nc2)CC1` [Example 2.15], the concentration for half-maximal inhibition (IC50) is 9.3 nM.

Turning to `CC(=O)N1CCN(c2ccc(CNc3ccc(OCc4ccc(C(F)F)nc4)nn3)cc2)CC1(C)C` [Example 1.7], the concentration for half-maximal inhibition (IC50) worked out at 12.4 nM.

With `CC(=O)N(C)C1CCN(c2ccc(CNc3ccc(OCc4ccc(C(F)(F)F)nc4)nn3)cc2)CC1` [Example 2.1, N-methyl-N-[1-(4-{[(6-{[6-(trifluoromethyl)pyridin-3-yl]methoxy}pyridazin-3-yl)amino]methyl}phenyl)piperidin-4-yl]acetamide], the concentration for half-maximal inhibition (IC50) worked out at 4.7 nM.

For `CC(=O)N1CC2CC1CN2c1ccc(CNc2ccc(OCc3ccc(C(F)F)nc3)nn2)cc1` (stereo not drawn) [Example 2.6], the IC50 came out at 3.2 nM.

As to `CC(=O)N1CC[C@@H]2CN(c3ccc(CNc4ccc(OCc5ccc(C(F)(F)F)nc5)nn4)cc3)C[C@@H]2CC1` [Example 4], the IC50 was found to be 7.1 nM.

Regarding `CC(=O)N1CCN(c2ccc(CNc3ccc(OCc4ccc(C(F)F)nc4)nn3)c(C(F)(F)F)c2)CC1` [Example 2.7], the IC50 was 7 nM.

As for `CC(=O)N1CCC2(CC1)CN(c1ccc(CNc3ccc(OCc4ccc(C(F)F)nc4)nn3)cc1)C2` [Example 1.6], the IC50 stood at 8.7 nM.

For `CC(=O)N1CCN(c2ccc(CNc3ccc(OCc4cnc(C(F)F)c(F)c4)nn3)cc2)CC1` [Example 2.12], the IC50 is 4.3 nM.

Consider `CC(=O)N1CCN(c2ccc(CNc3ccc(OCc4ccc(C(F)F)nc4)nn3)cn2)CC1` [Example 2.3], for which the IC50 is 4.4 nM.

On to `CC(=O)N1CCC2(CC1)CN(c1ccc(CNc3ccc(OCc4ccc(C(F)(F)F)nc4)nn3)cn1)C2` [Example 2.17], for which the IC50 was found to be 3.5 nM.

Turning to `CC(=O)N1CCC2(CC1)CN(c1ccc(CNc3ccc(OCc4ccc(C(F)F)nc4)nn3)cn1)C2` [Example 2.18], the IC50 is 4.1 nM.

For the compound `CC(=O)N1CC2CCC1CN2c1ccc(CNc2ccc(OCc3ccc(C(F)(F)F)nc3)nn2)cc1` (stereo not drawn) [Example 2.20], the IC50 was found to be 3.7 nM.

On to `CC(=O)N1CC2CC1CN2c1ccc(CNc2ccc(OCc3ccc(C(F)(F)F)nc3)nn2)cc1` (stereo not drawn) [Example 2.23], for which the 50% inhibitory concentration (IC50) came to 3.6 nM.

With `CC(=O)N1CCN(c2ccc(CNc3ccc(OCc4ccc(C(F)F)nc4)nn3)c(F)c2)CC1` [Example 1.4], the IC50 turned out to be 2.8 nM.

For the compound `CC(=O)N1CC2(C1)CN(c1ccc(CNc3ccc(OCc4ccc(C(F)(F)F)nc4)nn3)cc1F)C2` [Example 2.9], the IC50 turned out to be 4.1 nM.

As for `CC(=O)N1CCN(c2ccc(CNc3ccc(OCc4ccc(C(F)F)nc4)nn3)cc2F)CC1` [Example 1.3], the concentration for half-maximal inhibition (IC50) worked out at 1.6 nM.

As to `CN1CC2(CC1=O)CN(c1ccc(CNc3ccc(OCc4ccc(C(F)F)nc4)nn3)cc1)C2` [Example 1.5], the IC50 was 2 nM.

`CC(=O)N1CCN(c2ccc(CNc3ccc(OCc4ccc(C(F)(F)F)nc4)nn3)cc2)CC1` [Example 2.2]: the IC50 was found to be 4.7 nM.

`CC(=O)N1C[C@@H]2[C@H](C1)[C@H]1CN(c3ccc(CNc4ccc(OCc5ccc(C(F)(F)F)nc5)nn4)cc3)C[C@@H]21` [Example 5, 1-((3aR,3bS,6aR,6bS)-5-(4-(((6-((6-(trifluoromethyl)pyridin-3-yl)methoxy)pyridazin-3-yl)amino)methyl)phenyl)octahydrocyclobuta[1,2-c:3,4-c′]dipyrrol-2(1H)-yl)ethan-1-one]: the concentration for half-maximal inhibition (IC50) stood at 7.5 nM.

Consider `CC(=O)N1C[C@@H]2CN(c3ccc(CNc4ccc(OCc5ccc(C(F)F)nc5)nn4)cc3)C[C@@H]2C1` [Example 2.14], for which the concentration for half-maximal inhibition (IC50) was determined as 2.8 nM.

As for `CC(=O)N1CC2(C1)CN(c1ccc(CNc3ccc(OCc4ccc(C(F)F)nc4)nn3)cc1)C2` [Example 1.2], the IC50 is 1 nM.

Turning to `CC(=O)N[C@H]1[C@@H]2CN(c3ccc(CNc4ccc(OCc5ccc(C(F)(F)F)nc5)nn4)cc3)C[C@@H]21` [Example 2.11], the concentration for half-maximal inhibition (IC50) worked out at 4 nM.

Turning to `CC(=O)N1CCC2(CC1)CN(c1ccc(CNc3ccc(OCc4ccc(C(F)(F)F)nc4)nn3)cc1)C2` [Example 2.22], the IC50 was determined as 3.9 nM.

For `CC(=O)N1CC2(C1)CN(c1ccc(CNc3ccc(OCc4ccc(C(F)(F)F)nc4)nn3)c(F)c1)C2` [Example 2.21], the IC50 was determined as 1.4 nM.

With `FC(F)c1ccc(COc2ccc(NCc3ccc(N4CCN(C5COC5)CC4)cc3)nn2)cn1` [Example 2.10], the concentration for half-maximal inhibition (IC50) was found to be 2.2 nM.

On to `FC(F)(F)c1ccc(COc2ccc(NCc3ccc(N4CCN(C5COC5)CC4)cc3)nn2)cn1` [Example 2.8], for which the IC50 amounted to 2.4 nM.

As for `CC(=O)N1CCN(c2ccc(CNc3ccc(OCc4ccc(C(F)F)nc4)nn3)cc2)CC1` [Example 3, 1-[4-(4-{[(6-{[6-(Difluoromethyl)pyridin-3-yl]methoxy}pyridazin-3-yl)amino]methyl}-phenyl)piperazin-1-yl]ethan-1-one], the half-maximal inhibitory concentration (IC50) is 1.9 nM.

As for `CC(=O)N1CC2(C1)CN(c1ccc(CNc3ccc(OCc4ccc(C(F)(F)F)nc4)nn3)cc1)C2` [Example 1.1, 1-(6-(4-(((6-((6-(trifluoromethyl)pyridin-3-yl)methoxy)pyridazin-3-yl)amino)methyl)phenyl)-2,6-diazaspiro[3.3]heptan-2-yl)ethan-1-one], the IC50 was 1.7 nM.

Turning to `CC(=O)N1CCN(c2ccc(CNc3ccc(OCc4ccc(C(F)F)nc4)nn3)nc2)CC1` [Example 2.4], the IC50 came out at 6.8 nM.

The next assay relates to LPA levels.
Assay: not given
The settings on record: as disclosed in C. Kuttruff, et al.; cited from earlier work.
For the compound `O=C(NC[C@@H]1[C@H]2CN(C(=O)OCc3cc(C(F)(F)F)cc(C(F)(F)F)c3)C[C@@H]12)c1ccc2[nH]nnc2c1`, the “LPA levels in vivo” value is listed as “significantly reduces”.
